Experimental findings from BindingDB's records for doi:10.1016/S0960-894X(97)10016-6 (1997) are described below.

One may read the IC50 as the point on the concentration scale where inhibition reaches its midpoint. The low end stands for inhibition by little substance, the high end for a need for much substance.

In this assay the target is T1, Progesterone receptor (Oryctolagus cuniculus, UniProt P06186).
T1 sequence (P06186 whole entry): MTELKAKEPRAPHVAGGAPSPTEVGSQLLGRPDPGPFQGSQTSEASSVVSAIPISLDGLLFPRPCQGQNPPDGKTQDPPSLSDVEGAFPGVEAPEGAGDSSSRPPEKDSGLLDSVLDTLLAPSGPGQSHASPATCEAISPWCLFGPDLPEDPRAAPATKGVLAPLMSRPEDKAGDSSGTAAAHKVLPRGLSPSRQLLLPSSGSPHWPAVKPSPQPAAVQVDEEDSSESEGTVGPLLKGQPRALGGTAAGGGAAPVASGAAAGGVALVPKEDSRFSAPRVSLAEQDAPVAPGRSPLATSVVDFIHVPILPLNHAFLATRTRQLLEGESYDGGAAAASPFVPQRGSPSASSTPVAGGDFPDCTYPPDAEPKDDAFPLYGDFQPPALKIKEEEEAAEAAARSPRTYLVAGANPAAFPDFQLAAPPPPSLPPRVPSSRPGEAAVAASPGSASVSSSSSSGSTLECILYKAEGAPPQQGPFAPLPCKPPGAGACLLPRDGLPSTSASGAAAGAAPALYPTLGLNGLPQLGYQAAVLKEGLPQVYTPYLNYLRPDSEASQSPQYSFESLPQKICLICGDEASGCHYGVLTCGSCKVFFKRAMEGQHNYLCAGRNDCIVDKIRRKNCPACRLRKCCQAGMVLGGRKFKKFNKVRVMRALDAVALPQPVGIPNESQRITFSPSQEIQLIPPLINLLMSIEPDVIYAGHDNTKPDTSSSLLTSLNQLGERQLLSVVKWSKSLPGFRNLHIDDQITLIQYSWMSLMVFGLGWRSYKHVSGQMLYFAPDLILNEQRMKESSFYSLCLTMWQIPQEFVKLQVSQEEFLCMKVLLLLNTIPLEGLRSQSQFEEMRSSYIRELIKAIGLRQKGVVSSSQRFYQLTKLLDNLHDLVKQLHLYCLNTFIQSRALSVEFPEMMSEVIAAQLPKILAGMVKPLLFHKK
Kind of assay: ChEBML_159701. An excerpt: Binding affinity determined by ability to displace [3H]R5020 radioligand using uterine progesterone receptor obtained from estrogen-primed rabbit

Molecules are shown by their SMILES. Where only a bound is given, the exact number is not on record here.

`O=C(NNCC1=NN(c2ccc(F)cc2)C2C(Cc3cccc4ccccc34)CCCC12)c1ccccc1` (configuration not stated) displayed a concentration for half-maximal inhibition (IC50) of more than 10 µM.

As for `O=S(=O)(NNCC1=NN(c2ccc(F)cc2)C2C(Cc3cccc4ccccc34)CCCC12)c1ccccc1` (configuration not stated) [1-(4-Fluoro-phenyl)-3-(N'-[(E)-methylene]benzenesulfonohydrazide)-7-naphthalen-1-ylmethyl-octahydro-indazole], the IC50 is more than 10 µM.
